Earlier results in patent US20110190503A1, “Thiazolopyridin-2-yloxy-phenyl and thiazolopyrazin-2-yloxy-phenyl amines as modulators of leukotriene A4 hydrolase” (Janssen Pharmaceutical NV, priority 2008, published 2011).

Experiments:
[1] = severe asthmatics; cited from earlier work
[2] = test system: pruritus; details: Sjogren-Larsson syndrome patients; cited from earlier work
[3] = test system: bronchial hyperresponsiveness; details: human asthma; cited from earlier work
[4] = test system: atopic dermatitis; details: small, open-label clinical trials; cited from earlier work

CC(c1cc2ccccc2s1)N(O)C(N)=O (stereo not shown) [zileuton]
quality of life [1]: significantly improve quality of life | pruritus [2]: relieving the pruritus | bronchial hyperresponsiveness [3]: reduction of bronchial hyperresponsiveness | effect in atopic dermatitis [4]: beneficial effects
